How the values were obtained:
colonic epithelial cells = settings: cited from earlier work
[1] = test system: human dermal microvascular endothelial cells (HMEC); assay: M30-ApoptosisSense ELISA (cytokeratin 18) apoptosis rate in HMEC; type: cell-based
Description: To further elucidate the impact of KdPT administration on apoptosis in a different human cell line, additional experiments were performed in human dermal microvascular endothelial cells (HMEC) which are endothelial cells. The apoptosis rate in epithelial cells was measured by the M30-ApoptosisSense ELISA (PEVIVA, Bromma, Sweden), detecting cytokeratin 18 with a specific monoclonal M30 antibody, whereas before cytokeratin 18 was cleaved by the enzyme caspase. The HMEC cells grew semiconfluent in cell culture flasks, before plating them on a 6 well plate. One plate was stimulated with 10-5 and 10-6 M KdPT solved in routine medium (SFM, white column), the control plate was stimulated with the routine-medium alone.

[2] = test system: caco-2 cells (human intestinal epithelial cells); assay: M30-ApoptosisSense ELISA (cytokeratin 18) apoptosis rate in intestinal epithelial cells; type: cell-based; settings: p<0.05, FIG. 1
Description: The apoptosis rate in epithelial cells was measured by the M30-ApoptosisSense ELISA
(PEVIVA, Bromma, Sweden), detecting cytokeratin 18 with a specific monoclonal M30 antibody, whereas before cytokeratin 18 was cleaved by the enzyme caspase. The caco-2 cells (human intestinal epithelial cells) grew semiconfluent in cell culture flasks, before plating them on a 6 well plate. One plate was stimulated with 10^−5 and 10^−6 M KdPT solved in routine medium (SFM, white column), the control plate was stimulated with the routine-medium alone.

experimental colitis = settings: both colitis models (DSS, IL-10 gene-deficient mice); cited from earlier work
melanogenesis = settings: in vitro; cited from earlier work
murine DSS colitis = assay: Epithelial apoptosis rate in murine DSS-colitis (anti-active Caspase 3 staining of colon sections); type: in vivo; settings: DSS-treated WT mice, KdPT 10 μg/day/animal i.p. daily, vs PBS control, P<0.05
Description: To further evaluate the impact of KdPT on the epithelial apoptosis rate in vivo, the murine DSS colitis was performed. Dextran sodium sulfate (DSS)-induced colitis was accomplished as described in Bettenworth Am J Pathol 2011. WT mice were given 3% DSS (ICN Biomedicals Inc., Eschwege, Germany) in drinking water for 5 days, and disease activity was monitored daily by body weight measurement. Afterwards, the mice received regular drinking water again to monitor the improvement in inflammation. PBS-diluted KdPT (10 μg/day/animal; Bachem Americas Inc., Torrance, Calif.) was given daily by intraperitoneal (i.p.). injection until the end of the experiment. Control mice received PBS only.
At the end of the experiment, the mice were sacrificed and the colons removed. The colons were opened, embedded in Tissue-Tek O.C.T. (Sukura Finetek Europe, Zoeterwoude, The Netherlands), and kept frozen at −80° C. until further use. […] Immunhistological stainings were analyzed by two blinded investigators.
To assess apoptosis rate, the number of anti-active Caspase 3 positive cells per total crypt epithelial cells was counted. The number of anti-active Caspase 3 positive cells in colonic tissue was assessed as a […], determined after KdPT administration in DSS-treated mice.

human sebocytes = settings: cited from earlier work

Substance: (I)Lys-(d)Pro-(I)Thr [KdPT]
- transepithelial electrical resistance (colonic epithelial cells; after stimulation with interferon-γ/tumor necrosis factor-α): improved transepithelial electrical resistance
- closure of wounds (colonic epithelial cells; colonic epithelial cells): accelerated closure of wounds
- proliferation (colonic epithelial cells; colonic epithelial cells): increased proliferation
- apoptosis rate (M30 ELISA, cytokeratin 18) ([1]; HMEC costimulated with KdPT, 24 h incubation, control 1150.5 U/I): 965.9 U/I
- reduction of apoptosis rate ([1]; HMEC, 10-5 and 10-6 M KdPT, 24 h incubation, vs control plate, p=0.002): 19.2%
- apoptosis rate on costimulation with KdPT (in words) ([1]; HMEC, FIG. 2): significant reduction of the apoptosis rate
- apoptosis rate on costimulation with KdPT (in words) [2]: significant reduction of the apoptosis rate
- severity of inflammation (experimental colitis): markedly reduced severity of inflammation
- melanogenesis (melanogenesis): did not affect melanogenesis
- number of anti-active Caspase 3 positive cells per total crypt epithelial cells (murine DSS colitis): dramatically decreased
- IL-1(beta)-mediated cytokine expression and signaling (human sebocytes): suppresses
